Experimental findings from US8138191B2, “Inhibitor compounds and cancer treatment methods” (Critical Outcome Technologies Inc., priority 2007, dated 2012) are described below.

Each structure is given as a SMILES string. Like-named read-outs stand apart in the source and are kept apart here.

One data set addresses CYP2D6 (Homo sapiens, UniProt P10635). Kind of data set: in vitro. In kind it is in vitro ADME. The conditions noted are these: both sexes. How it is done: The final incubation volume was 200 μl. […] Peak areas corresponding to metabolite were recorded.
For another data set, the system named is SHP 77 cells. Kind of data set: Proliferation with anti-cancer agents plus COTI-2, SHP 77. The format is cell-based, human.
The next data set has as its system DMS114 cells. Kind of data set: Proliferation with anti-cancer agents plus COTI-2, DMS114. In kind it is cell-based, human.
The next data set concerns the target T1, CYP2B6 (Homo sapiens, UniProt P20813).
T1 sequence (P20813 1-491): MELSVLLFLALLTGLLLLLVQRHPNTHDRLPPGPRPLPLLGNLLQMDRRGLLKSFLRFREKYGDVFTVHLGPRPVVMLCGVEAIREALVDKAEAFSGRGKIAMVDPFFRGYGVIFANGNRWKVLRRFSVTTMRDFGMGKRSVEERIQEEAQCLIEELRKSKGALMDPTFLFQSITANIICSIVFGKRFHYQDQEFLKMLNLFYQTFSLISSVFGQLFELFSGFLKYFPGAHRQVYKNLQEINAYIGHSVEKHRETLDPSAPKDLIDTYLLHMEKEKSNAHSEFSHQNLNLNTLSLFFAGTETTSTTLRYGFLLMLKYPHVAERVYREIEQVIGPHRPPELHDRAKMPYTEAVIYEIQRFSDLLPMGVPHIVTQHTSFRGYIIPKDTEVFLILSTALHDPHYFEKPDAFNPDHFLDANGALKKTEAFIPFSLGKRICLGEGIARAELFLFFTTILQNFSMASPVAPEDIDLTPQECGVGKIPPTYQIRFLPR
Kind of data set: in vitro. The following applies: both.

For another data set, the system named is H226. Kind of data set: in vitro IC50 against cancer cell lines, H226. The format is cell-based. The following applies: Homo sapiens, NCI-H226, 72 h; H226, NSCLC, 3 days. The method, then:
Briefly, cells were plated in plastic tissue culture plates and grown under standard conditions for each cell line, in carbon dioxide/oxygen atmosphere in plastic tissue culture plates, in the presence of COTI-2 or COTI-219 compounds at 35° C. for 3 days. Control cultures were treated with vehicle minus compound. Cells were counted after 3 days in culture and at a cell density of no more than 80%. The following cell lines, obtained from the National Cancer Institute, were tested: human SCLC cell lines DMS153, DMS114, SHP77; human NSCLC cell lines H226, A460, A560; human breast cancer cell lines T47D, MCF7; human colon cancer cell line HT29; and, human Leukemia cell lines K562, HL60.

Data set [1] concerns normal human peripheral blood mononuclear cells (PBMCs). Kind of data set: Flow cytometric analysis of cell death (Annexin V/PI), PBMCs. In kind it is cell-based. The conditions noted are these: PBMC, PBMCs from healthy male and female subjects. The method, then:
All cell lines were grown and exposed to various concentrations of COTI-2 or vehicle only control and the percentage of dead or dying cells were determined 24 and 48 h post-exposure by Annexin V and propidium iodide.
Blood samples from 2 healthy human volunteers (person) were obtained in 5 ml Vacutainers® containing 100 USP sodium heparin (Becton Dickinson, Franklin Lake, N.J.) and rocked gently to mix, then kept at room temperature. Blood was diluted 1:1 with phosphate buffered saline (PBS) and layered over an equal volume of room temperature Histopaque-1083® (Sigma Diagnostics, St. Louis, Mo.) in a 15 ml conical bottom polyethylene (PET) centrifuge tube (Corning Corporation, Corning, N.Y.). This was centrifuged at 400×g for 30 minutes at 20° C. […]
Cells were plated in 25-cm^2 flasks and treated with COTI-2 (0-100 μM) added from a stock DMSO/DMEM solution such that DMSO concentrations never exceeded 0.5%. […] Resuspended cells (100 μl) were incubated in the dark with 10 μl propidium iodide (PI, 50 ng per ml; Sigma, St. Louis, Mo.) plus Annexin V-FITC (25 ng per ml, green fluorescence; BD Biosciences, Mississauga, Ontario). […] Samples were analyzed for combined Annexin V/PI staining (to assess dead plus apoptotic cells) using a Beckman Coulter EPCS XL-MCL flow cytometer (Beckman Coulter, Hileah, Fla.) and the data were analyzed with CellQuest software.

CYP2D6, sequence (P10635 whole entry): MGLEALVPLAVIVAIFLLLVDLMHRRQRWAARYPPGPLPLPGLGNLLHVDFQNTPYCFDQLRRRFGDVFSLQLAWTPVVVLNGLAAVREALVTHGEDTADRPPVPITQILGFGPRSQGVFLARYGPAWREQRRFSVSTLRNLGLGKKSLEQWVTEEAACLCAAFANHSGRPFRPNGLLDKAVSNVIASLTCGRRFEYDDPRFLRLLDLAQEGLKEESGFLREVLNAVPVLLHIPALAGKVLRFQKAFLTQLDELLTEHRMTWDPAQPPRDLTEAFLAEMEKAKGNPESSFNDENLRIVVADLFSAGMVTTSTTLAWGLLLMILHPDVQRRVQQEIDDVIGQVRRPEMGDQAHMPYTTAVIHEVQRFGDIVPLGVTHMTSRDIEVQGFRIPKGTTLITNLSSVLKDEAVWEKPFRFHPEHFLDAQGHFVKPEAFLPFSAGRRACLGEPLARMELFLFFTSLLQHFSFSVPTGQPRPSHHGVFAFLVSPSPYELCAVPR

As usually defined, the inhibition is the relative decrease from the control value, in per cent. For orientation: IC50 means the concentration that gives 50% inhibition. Regarding `S=C(N/N=C1/CCCc2cccnc21)N1CCN(c2ccccn2)CC1` [COTI-2], the inhibition at 15 min, 10 µM on CYP2D6 (human liver microsomes, pH 7.4, probe dextromethorphan (10 µM), CYP2D6, HLM, dextromethorphan substrate, 1.0E−05 M, read-out: % Inhibition of Control Values) was 2%; on CYP2D6 (liver microsomes, pH 7.4, probe dextromethorphan, CYP2D6, 10 μM, read-out: percent inhibition), under 50%; against CYP2B6 (human liver microsomes, pH 7.4, probe bupropion (10 µM)), 5%; on CYP2B6 (liver microsomes, pH 7.4, probe bupropion), under 50%. Moreover, the “reduction of proliferation as a single agent” value with SHP 77 cells (SHP 77, 31 nM) came to 25%; with SHP 77 cells (SHP 77, 73 nM) it was 25%; with DMS114 cells (DMS114, 31 nM) it was 25%; in the data set with DMS114 cells (DMS114, 73 nM), 25%. Moreover, the IC50 was 15 µM in the data set with H226 and over 100 µM in data set [1].
